# Test results published in PubChem BioAssay (NCI).
#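 How tested: cells in 96-well plates exposed to compound for 48 hours at five concentrations. The concentration for 50% growth inhibition is given as GI50. Definition used: TGI = concentration required for complete inhibition of growth.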
# Key:
# Experiment in all cases: NCI tumour cell line growth inhibition, 48 h
# HOP-62 NSCLC = tested on: HOP-62 NSCLC
# 786-0 renal = tested on: 786-0 renal
# KM12 colon = tested on: KM12 colon
# NCI-H226 lung = tested on: NCI-H226 lung
# NCI-H460 lung = tested on: NCI-H460 lung
# A549 NSCLC = tested on: A549 NSCLC
# MALME-3M melanoma = tested on: MALME-3M melanoma
# ACHN renal = tested on: ACHN renal
# U251 CNS = tested on: U251 CNS
# MDA-MB-435 = tested on: MDA-MB-435
# MCF7 breast = tested on: MCF7 breast
# CCRF-CEM leukemia = tested on: CCRF-CEM leukemia
# NCI/ADR-RES ovarian = tested on: NCI/ADR-RES ovarian
# HOP-92 NSCLC = tested on: HOP-92 NSCLC
# M14 melanoma = tested on: M14 melanoma
# SW-620 colon = tested on: SW-620 colon
# SF-539 CNS = tested on: SF-539 CNS
# OVCAR-8 ovarian = tested on: OVCAR-8 ovarian
# NCI-H23 lung = tested on: NCI-H23 lung
# OVCAR-5 ovarian = tested on: OVCAR-5 ovarian
# MOLT-4 leukemia = tested on: MOLT-4 leukemia
# NCI-H522 lung = tested on: NCI-H522 lung
# OVCAR-3 ovarian = tested on: OVCAR-3 ovarian
# SK-MEL-2 melanoma = tested on: SK-MEL-2 melanoma
# SF-295 CNS = tested on: SF-295 CNS
# UACC-62 melanoma = tested on: UACC-62 melanoma
# SNB-75 CNS = tested on: SNB-75 CNS
# EKVX NSCLC = tested on: EKVX NSCLC
# SK-OV-3 ovarian = tested on: SK-OV-3 ovarian
# HT29 colon = tested on: HT29 colon
# A498 renal = tested on: A498 renal
# SK-MEL-5 melanoma = tested on: SK-MEL-5 melanoma
# IGROV1 ovarian = tested on: IGROV1 ovarian
# SF-268 CNS = tested on: SF-268 CNS
# HL-60(TB) leukemia = tested on: HL-60(TB) leukemia
# SN12C renal = tested on: SN12C renal
# MDA-MB-231 breast = tested on: MDA-MB-231 breast
# HCT-15 colon = tested on: HCT-15 colon
# RXF 393 renal = tested on: RXF 393 renal
# T-47D breast = tested on: T-47D breast
# TK-10 renal = tested on: TK-10 renal
# K-562 leukemia = tested on: K-562 leukemia
# OVCAR-4 ovarian = tested on: OVCAR-4 ovarian
# DU-145 prostate = tested on: DU-145 prostate
# SK-MEL-28 melanoma = tested on: SK-MEL-28 melanoma
# LOX IMVI melanoma = tested on: LOX IMVI melanoma
# CAKI-1 renal = tested on: CAKI-1 renal
# UACC-257 melanoma = tested on: UACC-257 melanoma
# BT-549 breast = tested on: BT-549 breast
# HS 578T breast = tested on: HS 578T breast
# HCT-116 colon = tested on: HCT-116 colon
# PC-3 prostate = tested on: PC-3 prostate
# COLO 205 colon = tested on: COLO 205 colon
# UO-31 renal = tested on: UO-31 renal
# SNB-19 CNS = tested on: SNB-19 CNS
# HCC-2998 colon = tested on: HCC-2998 colon
smiles,measurement,setting,value
Cc1ccc(-c2nc([P+](c3ccccc3)(c3ccccc3)c3ccccc3)c(S(=O)(=O)c3ccc(C)cc3)o2)cc1,GI50,HOP-62 NSCLC,1470 nM
same,TGI,HOP-62 NSCLC,4560 nM
same,GI50,786-0 renal,1460 nM
same,TGI,786-0 renal,2850 nM
same,GI50,KM12 colon,1750 nM
same,TGI,KM12 colon,3830 nM
same,GI50,NCI-H226 lung,5050 nM
same,TGI,NCI-H226 lung,24600 nM
same,GI50,NCI-H460 lung,1640 nM
same,TGI,NCI-H460 lung,3430 nM
same,GI50,A549 NSCLC,2000 nM
same,TGI,A549 NSCLC,5140 nM
same,GI50,MALME-3M melanoma,1020 nM
same,TGI,MALME-3M melanoma,2190 nM
same,GI50,ACHN renal,1460 nM
same,TGI,ACHN renal,2780 nM
same,GI50,U251 CNS,1140 nM
same,TGI,U251 CNS,2430 nM
same,GI50,MDA-MB-435,1560 nM
same,TGI,MDA-MB-435,3040 nM
same,GI50,MCF7 breast,1520 nM
same,TGI,MCF7 breast,3830 nM
same,GI50,CCRF-CEM leukemia,606 nM
same,TGI,CCRF-CEM leukemia,6940 nM
same,GI50,NCI/ADR-RES ovarian,2940 nM
same,TGI,NCI/ADR-RES ovarian,18000 nM
same,GI50,HOP-92 NSCLC,1430 nM
same,TGI,HOP-92 NSCLC,3130 nM
same,GI50,M14 melanoma,1510 nM
same,TGI,M14 melanoma,3270 nM
same,GI50,SW-620 colon,929 nM
same,TGI,SW-620 colon,2470 nM
same,GI50,SF-539 CNS,1580 nM
same,TGI,SF-539 CNS,2920 nM
same,GI50,OVCAR-8 ovarian,1320 nM
same,TGI,OVCAR-8 ovarian,4170 nM
same,GI50,NCI-H23 lung,1680 nM
same,TGI,NCI-H23 lung,3500 nM
same,GI50,OVCAR-5 ovarian,1580 nM
same,TGI,OVCAR-5 ovarian,3180 nM
same,GI50,MOLT-4 leukemia,1060 nM
same,TGI,MOLT-4 leukemia,4630 nM
same,GI50,NCI-H522 lung,1600 nM
same,TGI,NCI-H522 lung,3670 nM
same,GI50,OVCAR-3 ovarian,755 nM
same,TGI,OVCAR-3 ovarian,2070 nM
same,GI50,SK-MEL-2 melanoma,2170 nM
same,TGI,SK-MEL-2 melanoma,4410 nM
same,GI50,SF-295 CNS,2910 nM
same,TGI,SF-295 CNS,10700 nM
same,GI50,UACC-62 melanoma,1530 nM
same,TGI,UACC-62 melanoma,2890 nM
same,GI50,SNB-75 CNS,1210 nM
same,TGI,SNB-75 CNS,4410 nM
same,GI50,EKVX NSCLC,1210 nM
same,TGI,EKVX NSCLC,2980 nM
same,GI50,SK-OV-3 ovarian,3740 nM
same,TGI,SK-OV-3 ovarian,12500 nM
same,GI50,HT29 colon,1700 nM
same,TGI,HT29 colon,4170 nM
same,GI50,A498 renal,1610 nM
same,TGI,A498 renal,4770 nM
same,GI50,SK-MEL-5 melanoma,1810 nM
same,TGI,SK-MEL-5 melanoma,3400 nM
same,GI50,IGROV1 ovarian,1610 nM
same,TGI,IGROV1 ovarian,3150 nM
same,GI50,SF-268 CNS,1550 nM
same,TGI,SF-268 CNS,2970 nM
same,GI50,HL-60(TB) leukemia,1670 nM
same,TGI,HL-60(TB) leukemia,4380 nM
same,GI50,SN12C renal,1060 nM
same,TGI,SN12C renal,2340 nM
same,GI50,MDA-MB-231 breast,1520 nM
same,TGI,MDA-MB-231 breast,2930 nM
same,GI50,HCT-15 colon,1440 nM
same,TGI,HCT-15 colon,3230 nM
same,GI50,RXF 393 renal,1400 nM
same,TGI,RXF 393 renal,2790 nM
same,GI50,T-47D breast,1990 nM
same,TGI,T-47D breast,5230 nM
same,GI50,TK-10 renal,1730 nM
same,TGI,TK-10 renal,3270 nM
same,GI50,K-562 leukemia,312 nM
same,TGI,K-562 leukemia,3220 nM
same,GI50,OVCAR-4 ovarian,1400 nM
same,TGI,OVCAR-4 ovarian,2830 nM
same,GI50,DU-145 prostate,1270 nM
same,TGI,DU-145 prostate,2520 nM
same,GI50,SK-MEL-28 melanoma,1700 nM
same,TGI,SK-MEL-28 melanoma,3090 nM
same,GI50,LOX IMVI melanoma,328 nM
same,TGI,LOX IMVI melanoma,1300 nM
same,GI50,CAKI-1 renal,1360 nM
same,TGI,CAKI-1 renal,2710 nM
same,GI50,UACC-257 melanoma,1700 nM
same,TGI,UACC-257 melanoma,3700 nM
same,GI50,BT-549 breast,1610 nM
same,TGI,BT-549 breast,3100 nM
same,GI50,HS 578T breast,1700 nM
same,TGI,HS 578T breast,5310 nM
same,GI50,HCT-116 colon,1370 nM
same,TGI,HCT-116 colon,2750 nM
same,GI50,PC-3 prostate,1430 nM
same,TGI,PC-3 prostate,3280 nM
same,GI50,COLO 205 colon,1710 nM
same,TGI,COLO 205 colon,4280 nM
same,GI50,UO-31 renal,1320 nM
same,TGI,UO-31 renal,2600 nM
same,GI50,SNB-19 CNS,1640 nM
same,TGI,SNB-19 CNS,3300 nM
same,GI50,HCC-2998 colon,1450 nM
same,TGI,HCC-2998 colon,3010 nM
